For test [1], the system named is RNA targets containing hexameric r(CUGCUG)-repeats (T1-T8). Nature of the test: UV melting experiments of MPγPNA probes with RNA targets. The test is classed as binding. The settings on record: for trend of Tms with number of binding-sites in the targets: 10 mM NaPi, 150 mM KCl, 2 mM MgCl2, pH 7.4, 8 μM strand concentration; for differences in the Tms of RNAs with mismatched probes: single (P5) and double (P6) base mismatch probes. On the procedure:
FIG. 7. UV-melting profiles of PI through P4 with T6. The concentration of T6 was 1 μM and that of each probe was 6 μM, prepared in a physiologically relevant buffer.
FIG. 8. UV-melting profiles of P4-RNA heteroduplexes in a physiologically relevant buffer at 8 μM strand concentration. The samples were prepared by mixing 8 μM of P4 with the respective RNA targets at the following concentrations: T1=8.0 μM, T2=4.0 μM, T4=2.0 μM, T6=1.3 μM, T8=1.0 μM in a physiological buffer and annealed at 90° C. for 5 min, followed by a gradual cooling to room temperature.
FIG. 9. UV-melting transitions of RNAs and the corresponding probe-RNA heteroduplexes containing the perfectly-matched and mismatched sequences as a function of the number of r(CUGCUG)n-binding-sites in the targets. Inset: UV-melting profiles Of RNA with P5 and P6 containing single and double base-mismatches, respectively.
UV Melting Experiments: All UV-melting samples were prepared by mixing MPγPNA with RNA targets at the indicated concentrations in a physiologically simulated buffer (10 mM NaPi (sodium phosphate buffer), 150 mM KCl, 2 mM MgCl2; pH 7-4), and annealed by incubation at 90° C. for 5 min followed by a gradual cooling to room temperature. UV melting curves were collected using Agilent Cary UV-Vis 300 spectrometer equipped with a thermoelectrically controlled multi-cell holder. UV-melting spectra were collected by monitoring UV-absorption at 260 nm from 25° C. to 95° C. in the heating runs, and from 95° C. to 25° C. in the cooling runs, both at the rate of 0.2° C. per min. […] The recorded spectra were smoothed using a 20-point adjacent averaging algorithm. The first derivatives of the melting curves were taken to determine the melting temperatures of the duplex.
All the experiments were conducted at a physiologically relevant ionic strength (10 mM NaPi, 150 mM KCl, and 2 mM MgCl2 at pH 7.4). RNA concentrations were prepared such that the number of r(CUGCUG)-repeats in each sample was the same. […] Based on this finding, we selected P4 and carried out UV-melting study with the various RNA targets. […] Pyrene-pyrene interaction is evident from the inverse absorption profiles of P4-T6 and P4-T8 in the 40-70° C. temperature range. Upon heating, the solvophobic effect becomes more pronounced due to the inverse intensity distribution of vibronic transition of pyrene excimer relative to monomer, Ae^o→o/Am^o→o˜0.6, prior to their dissociation upon further heating. […] The Tms of the P4-RNA series follow a positive linear correlation, Y=66+2X, with X being the number of binding-sites in the targets (FIG. 9). […] Such a phenomenon was also observed with PNA-ligand conjugates.

In test [2] the test system is RNA targets containing r(CUGCUG)-repeats (T1-T8). Nature of the test: Steady-state fluorescent measurements of P4-RNA duplexes (pyrene excimer emission). The settings on record: P4 1 μM, equimolar binding sites T1-T8; 37° C., 1 hr. On the procedure:
(§1) FIG. 10. Fluorescent spectra of P4-RNA duplexes at equimolar concentrations (P4=1 μM; T1=1 μM, T2=½, T4 ¼, T6=⅙, T8 ⅛) following the incubation at 37° C. for 1 hr and excitation at 345 nm. Inset: Fluorescent signals at 480 nm as a function of time following the addition of P4 (1 μM) to T8 (⅛ μM), and P4 (1 μM) to [T1 (1 μM)+T8 (⅛ μM)] at 37° C.
Steady-State Fluorescent Measurements: All steady-state fluorescence samples were prepared by mixing P4-RNA duplexes at the indicated concentrations in a simulated physiological buffer and annealed by incubation at 90° C. for 5 min, followed by a gradual cooling to 37° C. The samples were incubated at 37° C. for 1 hr before the measurements. Steady-state fluorescence data were collected at 37° C. by Cary Eclipse Fluorescence Spectrometer. (εex=350 nm and εem=480 nm) with slit size.
(§2) To further corroborate these findings, we carried out fluorescent measurements under identical conditions. The samples were excited at 340 nm, and the fluorescent signals were recorded from 345 to 650 nm. Characteristic of the pyrene-pyrene excimer formation is the emission at 480 nm (FIG. 10). […] The samples were markedly different under UV-illumination, such that they could be distinguished with the naked eyes (FIG. 11).

The test system of test [3] is rCUG^exp-MBNL1 complex (T48 with GST-MBNL1-F1). Nature of the test: Analysis of T48-MBNL1 disruption by probe (gel-shift assay). The test is classed as biochemical. The conditions noted are these: T48 25 nM, GST-MBNL1-F1 400 nM; increasing probe concentrations. On the procedure: FIG. 13. Displacement of MBNL1 from T48 by P4. P-T48 was allowed to form complexes with GST-MBNL1-FI prior to the addition of P4. The samples were prepared in a physiologically relevant buffer at the final T48 and GST-MBNL1-FI concentration of 25 nM and 400 nM, respectively.
Analysis of T48-MBNL1 Disruption by Probe: T48 and GST-MBNL1-F1 were prepared as previously described. Radioisotopically labeled T48 was incubated with GST-MBNL1-F1 in buffer containing 50 mM Tris, 50 mM NaCl, 50 mM KCl and 1 mM MgCl2 (pH 8.0) at the indicated concentrations at 25° C. for 30 minutes. The indicated concentration of P4 was added to T48-MBNL1 complex. The samples were immediately loaded to 1.5% agarose gels with 1× Tris-borate buffer and electrophoretically separated at 100 V for 2 hrs. The bands were visualized by phosphorimaging and quantified with ImageQuant (Molecular Dynamics).
Next, we determined whether P4 can disrupt the rCUG^exp-MBNL1 complex by performing a gel-shift assay. The RNA-protein complex was prepared by incubating 5′-^32P-labelled T48 with MBNL1 at a physiologically relevant condition. Upon confirmation of their binding, P4 was added and the resulting mixtures were incubated at 37° C. for 4 hrs prior to their analysis by nondenaturing PAGE and autoradiography. Formation of the T48-MBNL1 complexes is evident by the smeared patterns observed in lanes 2 through 4 of FIG. 13. […]

Test [4] has as its system normal-length T6 and pathogenic T48 [r(CUG)96] RNA. Description: Competitive binding assay (agarose gel, SYBR-Gold). The conditions noted are these: equimolar binding-sites of T6 and T48, 37° C. for 16 hrs. On the procedure:
FIG. 12. Selective binding of r(CUGCUG)n-RNA transcripts by P4. The samples were prepared by mixing pre-annealed RNAs with probes at 37° C. for 4 hrs. The ratios of P4 to the total RNA binding-sites were 0 (lane 3), ¼ (lane 4), ½ (lane 5), 1/1 (lane 6); and for the mismatched P5 at 1/1 (lane 7). Competitive Binding Assay: T6 was purchased from IDT. T48, the same as r(CUG)96, was prepared as previous described, except that the DNA template was (CTG)96. T6 and T48 were separately annealed by heating up to 90° C. for 5 min and gradually cooled to room temperature. Probes and RNA targets were mixed at the indicated concentrations and incubated in a physiologically simulated buffer at 37° C. for 4 hr in silicon-coated Eppendorf tubes. The samples were then loaded onto 2% agarose-gel containing IX SYBR-Gold with Tris-borate buffer and electrophoretically separated at 100 V for 15 min. The bands were visualized by UV-Transilluminator. To assess the recognition selectivity of P4 probe, we carried out a competitive binding assay. Equimolar binding-sites of the normal-length T6 and the pathogenic T48 [r(CUG)96, prepared according to our published protocol, were incubated with different concentrations of P4 at 37° C. for 16 hrs. The resulting mixtures were analyzed by agarose-gel and stained with SYBR-Gold for visualization.

Test [5] concerns T8 RNA (r(CUGCUG)-repeats), with or without competing T1. Nature of the test: Real-time fluorescent binding kinetics. How it is done: as §1
Real-Time Fluorescent Binding Kinetics: For real-time fluorescent kinetic experiment the samples were prepared as followed: (1) P4 alone, (2) P4, T1 and T8 annealed prior to the measurement, (3) addition of P4 to T8 at 37° C., and (4) addition of P4 to T8 in the presence of T1 at equimolar binding sites. Realtime fluorescence data were collected at 37° C. by Cary Eclipse Fluorescence Spectrometer. (εex=350 nm and εem=480 nm) with slit size.
as §2

Entries after “also recorded” stand apart in the source; their conditions may differ.

For H-^L-Arg-CAGCAG-^LArg-NH2 [P1], the “trend of Tms with number of binding-sites in the targets” value in test [1] was “plateaued at X˜3”.

In the case of “H-^LArg-^LLys(Pyr)-CTGCTG-^LLys(Pyr)-^LArg-NH2 [P6]”, the “differences in the Tms of RNAs with mismatched probes” value in test [1] was “no discernible differences”.

For “H-^LArg-^LLys(Pyr)-CAGCAG-^LLys(Pyr)-^LArg-NH2 [P4]”, the “fluorescent intensities at 480 nm (pyrene-pyrene excimer) with number of binding-sites in RNAs” value in test [2] is “gradual increase in the fluorescent intensities at 480 nm”. In addition, in test [3], the “disruption of rCUG^exp-MBNL1 complex / displacement of MBNL1 from T48” value is on record as “able to disrupt the rCUG^exp-MBNL1 complex”. Moreover, the “trend of Tms with number of binding-sites in the targets” value in test [1] is “monotonically increased with the number of binding-sites”. In addition, the “binding cooperativity (UV-melting profiles)” value in test [1] (with T6, T6 1 μM, probe 6 μM, physiologically relevant buffer, comparison of linker lengths P2 through P4) is given as “highest degree of binding cooperativity; also recorded: cooperative binding was clearly observed”. The “recognition selectivity / binding to T48 versus T6” value in test [4] is “able to discriminate the pathogenic T48 from the wt-T12”. The “hybridization lag-time with competing T1 strand” value in test [5] (P4 1 μM added to T1 1 μM + T8 ⅛ μM (equimolar binding-sites) at 37° C.) is on record as 2 min. In test [5] (P4 1 μM added to T8 ⅛ μM at 37° C., fluorescence at 480 nm), the “time to nearly complete hybridization to T8” value was at most 10 min. Besides, the “interaction with single-binding-site RNA” value in test [5] (physiologically simulated condition, T1 competitor) is “weak and transient”.

“H-^LArg-^LLys(Pyr)-CATCAG-^LLys(Pyr)-^LArg-NH2 [P5]”: the “differences in the Tms of RNAs with mismatched probes” value in test [1] was “no discernible differences”. The “recognition selectivity / binding to T48 versus T6” value in test [4] is listed as “No evidence of binding”.

(Values after patent US11859242B2, “Template-directed nucleic acid targeting compounds” (Carnegie Mellon University, priority 2017, dated 2024).)
